According to PubChem BioAssay AID1918994 (Molecular Pharmacology Branch, DTP, NCI, 2023):
Blank lines part the entries; values can stand above or below the compound they belong to.

Tested on: 292921-168-R-J2-PDC complex spheroid growth
Test: Anticancer human tumor 292921-168-R-J2-PDC patient-derived pancreatic carcinoma cell line growth inhibition [AhR]
Conditions: for IC50: curve of first compound; for viability, T/C: stronger effect = lower value
Procedure, shortened: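 Agents were dosed in half-log steps down from roughly clinical Cmax, or from 10 microM where Cmax was unknown, alone and with AhR antagonists. Read-out: percent test/control growth of tumor spheroids containing HUVEC and MSC stromal cells.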

[1] = second compound 0.1 µM, first compound 0.0316 µM
[2] = second compound 0.1 µM, first compound 0.1 µM
[3] = second compound 0.1 µM, first compound 0.316 µM
[4] = second compound 0.1 µM, first compound 1 µM
[5] = second compound 0.1 µM, first compound 3.16 µM
[6] = second compound 0.1 µM, first compound 10 µM
[7] = second compound 0.316 µM, first compound 0.0316 µM
[8] = second compound 0.316 µM, first compound 0.1 µM
[9] = second compound 0.316 µM, first compound 0.316 µM
[10] = second compound 0.316 µM, first compound 1 µM
[11] = second compound 0.316 µM, first compound 3.16 µM
[12] = second compound 0.316 µM, first compound 10 µM
[13] = second compound 1 µM, first compound 0.0316 µM
[14] = second compound 1 µM, first compound 0.1 µM
[15] = second compound 1 µM, first compound 0.316 µM
[16] = second compound 1 µM, first compound 1 µM
[17] = second compound 1 µM, first compound 3.16 µM
[18] = second compound 1 µM, first compound 10 µM
[19] = second compound 3.16 µM, first compound 0.0316 µM
[20] = second compound 3.16 µM, first compound 0.1 µM
[21] = second compound 3.16 µM, first compound 0.316 µM
[22] = second compound 3.16 µM, first compound 1 µM
[23] = second compound 3.16 µM, first compound 3.16 µM
[24] = second compound 3.16 µM, first compound 10 µM
[25] = second compound 10 µM, first compound 0.0316 µM
[26] = second compound 10 µM, first compound 0.1 µM
[27] = second compound 10 µM, first compound 0.316 µM
[28] = second compound 10 µM, first compound 1 µM
[29] = second compound 10 µM, first compound 3.16 µM
[30] = second compound 10 µM, first compound 10 µM
[31] = second compound 0.1 µM, first compound 0.00316 µM
[32] = second compound 0.1 µM, first compound 0.01 µM
[33] = second compound 0.316 µM, first compound 0.00316 µM
[34] = second compound 0.316 µM, first compound 0.01 µM
[35] = second compound 1 µM, first compound 0.00316 µM
[36] = second compound 1 µM, first compound 0.01 µM
[37] = second compound 3.16 µM, first compound 0.00316 µM
[38] = second compound 3.16 µM, first compound 0.01 µM
[39] = second compound 10 µM, first compound 0.00316 µM
[40] = second compound 10 µM, first compound 0.01 µM
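Also: spheroids exposed to compounds for seven days after three days of growth.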

SMILES: CC(C)c1c(-c2ccccc2)nc2c(C#N)c[nH]n2c1=O + CC(CO)NC(=O)c1cc(-c2ccc(Cl)cc2)nn(-c2cnn(C)c2)c1=O
IC50 (second compound 0.1 µM): > 10000 nM
IC50 (second compound 0.316 µM): > 10000 nM
IC50 (second compound 1 µM): > 10000 nM
IC50 (second compound 3.16 µM): > 10000 nM
IC50 (second compound 10 µM): > 10000 nM
viability, T/C [1]: 104%
viability, T/C [2]: 105%
viability, T/C [3]: 104%
viability, T/C [4]: 105%
viability, T/C [5]: 109%
viability, T/C [6]: 101%
viability, T/C [7]: 103%
viability, T/C [8]: 102%
viability, T/C [9]: 99.6%
viability, T/C [10]: 96%
viability, T/C [11]: 101%
viability, T/C [12]: 89.5%
viability, T/C [13]: 109%
viability, T/C [14]: 102%
viability, T/C [15]: 104%
viability, T/C [16]: 97.1%
viability, T/C [17]: 94.9%
viability, T/C [18]: 99.6%
viability, T/C [19]: 86.8%
viability, T/C [20]: 91.9%
viability, T/C [21]: 94.1%
viability, T/C [22]: 89.8%
viability, T/C [23]: 80.8%
viability, T/C [24]: 84.2%
viability, T/C [25]: 69.7%
viability, T/C [26]: 67.3%
viability, T/C [27]: 71.2%
viability, T/C [28]: 63.8%
viability, T/C [29]: 62.6%
viability, T/C [30]: 68.5%

SMILES: Nc1ncn(C2CC(O)C(CO)O2)c(=O)n1 (stereo not given) + Cc1ccccc1N=Nc1ccc(NC(=O)c2ccnn2C)c(C)c1
IC50 (second compound 0.1 µM): > 1000 nM
IC50 (second compound 0.316 µM): > 1000 nM
IC50 (second compound 1 µM): > 1000 nM
IC50 (second compound 3.16 µM): > 1000 nM
IC50 (second compound 10 µM): > 1000 nM
viability, T/C [31]: 90.2%
viability, T/C [32]: 94.2%
viability, T/C [1]: 101%
viability, T/C [2]: 86%
viability, T/C [3]: 73.5%
viability, T/C [4]: 72.9%
viability, T/C [33]: 96.9%
viability, T/C [34]: 86.9%
viability, T/C [7]: 87%
viability, T/C [8]: 76.5%
viability, T/C [9]: 76%
viability, T/C [10]: 78.6%
viability, T/C [35]: 80.1%
viability, T/C [36]: 104%
viability, T/C [13]: 84.2%
viability, T/C [14]: 79.6%
viability, T/C [15]: 77.2%
viability, T/C [16]: 72.4%
viability, T/C [37]: 80.2%
viability, T/C [38]: 82.7%
viability, T/C [19]: 66.3%
viability, T/C [20]: 72.2%
viability, T/C [21]: 63%
viability, T/C [22]: 55.6%
viability, T/C [39]: 63%
viability, T/C [40]: 65.3%
viability, T/C [25]: 58.7%
viability, T/C [26]: 61.6%
viability, T/C [27]: 62.8%
viability, T/C [28]: 45%

The next lines start with results.

IC50 (second compound 0.1 µM): 43.3 nM
IC50 (second compound 0.316 µM): 46.4 nM
IC50 (second compound 1 µM): 33 nM
IC50 (second compound 3.16 µM): 27.9 nM
IC50 (second compound 10 µM): 10.3 nM
SMILES: CC1COCCN1c1cc(-c2ccnn2C)c2ccnc(-c3ccn[nH]3)c2n1 (stereo not given) + CC(CO)NC(=O)c1cc(-c2ccc(Cl)cc2)nn(-c2cnn(C)c2)c1=O
viability, T/C [31]: 93.5%
viability, T/C [32]: 91%
viability, T/C [1]: 56.1%
viability, T/C [2]: 31.4%
viability, T/C [3]: 22.7%
viability, T/C [4]: 19.7%
viability, T/C [33]: 96.8%
viability, T/C [34]: 84.1%
viability, T/C [7]: 56.6%
viability, T/C [8]: 35.3%
viability, T/C [9]: 22%
viability, T/C [10]: 17.8%
viability, T/C [35]: 100%
viability, T/C [36]: 90.8%
viability, T/C [13]: 49%
viability, T/C [14]: 29.1%
viability, T/C [15]: 21.5%
viability, T/C [16]: 17.3%
viability, T/C [37]: 86.6%
viability, T/C [38]: 75.2%
viability, T/C [19]: 46.9%
viability, T/C [20]: 24.9%
viability, T/C [21]: 17.7%
viability, T/C [22]: 17.1%
viability, T/C [39]: 62.8%
viability, T/C [40]: 51%
viability, T/C [25]: 26.8%
viability, T/C [26]: 19.7%
viability, T/C [27]: 15.3%
viability, T/C [28]: 15.8%

IC50 (second compound 0.1 µM): 1810 nM
IC50 (second compound 0.316 µM): 1820 nM
IC50 (second compound 1 µM): 1910 nM
IC50 (second compound 3.16 µM): 1320 nM
IC50 (second compound 10 µM): 1060 nM
SMILES: COc1ccc([C@@H](O)c2cc(-c3ncnc4cc(N5CCOCC5)ccc34)c(F)cc2Cl)nn1 + CC(CO)NC(=O)c1cc(-c2ccc(Cl)cc2)nn(-c2cnn(C)c2)c1=O
viability, T/C [1]: 94.5%
viability, T/C [2]: 97.8%
viability, T/C [3]: 86.6%
viability, T/C [4]: 59.1%
viability, T/C [5]: 41.9%
viability, T/C [6]: 25.1%
viability, T/C [7]: 101%
viability, T/C [8]: 95.1%
viability, T/C [9]: 87%
viability, T/C [10]: 60.5%
viability, T/C [11]: 39.9%
viability, T/C [12]: 24.7%
viability, T/C [13]: 102%
viability, T/C [14]: 98.9%
viability, T/C [15]: 78.4%
viability, T/C [16]: 61.4%
viability, T/C [17]: 42.2%
viability, T/C [18]: 28.1%
viability, T/C [19]: 85.8%
viability, T/C [20]: 82.6%
viability, T/C [21]: 78.6%
viability, T/C [22]: 52.9%
viability, T/C [23]: 36%
viability, T/C [24]: 24.3%
viability, T/C [25]: 68%
viability, T/C [26]: 77.1%
viability, T/C [27]: 68.9%
viability, T/C [28]: 49.9%
viability, T/C [29]: 31.9%
viability, T/C [30]: 23.2%

IC50 (second compound 0.1 µM): 396 nM
IC50 (second compound 0.316 µM): 409 nM
IC50 (second compound 1 µM): 355 nM
IC50 (second compound 3.16 µM): 181 nM
IC50 (second compound 10 µM): 105 nM
SMILES: COc1cc(C2c3cc4c(cc3C(OC3OC5COC(C)OC5C(O)C3O)C3COC(=O)C23)OCO4)cc(OC)c1O (stereo not given) + Cc1ccccc1N=Nc1ccc(NC(=O)c2ccnn2C)c(C)c1
viability, T/C [1]: 92.5%
viability, T/C [2]: 85.8%
viability, T/C [3]: 51.6%
viability, T/C [4]: 30.8%
viability, T/C [5]: 18%
viability, T/C [6]: 10.8%
viability, T/C [7]: 86.3%
viability, T/C [8]: 71%
viability, T/C [9]: 58.7%
viability, T/C [10]: 29.9%
viability, T/C [11]: 14.8%
viability, T/C [12]: 11.7%
viability, T/C [13]: 75.6%
viability, T/C [14]: 72.2%
viability, T/C [15]: 52.3%
viability, T/C [16]: 26.3%
viability, T/C [17]: 19.2%
viability, T/C [18]: 10.9%
viability, T/C [19]: 63.4%
viability, T/C [20]: 60.8%
viability, T/C [21]: 40.5%
viability, T/C [22]: 25.5%
viability, T/C [23]: 16.4%
viability, T/C [24]: 9.21%
viability, T/C [25]: 60.8%
viability, T/C [26]: 52.7%
viability, T/C [27]: 27.2%
viability, T/C [28]: 23.3%
viability, T/C [29]: 18.9%
viability, T/C [30]: 11.1%

IC50 (second compound 0.1 µM): < 31.6 nM
IC50 (second compound 0.316 µM): < 31.6 nM
IC50 (second compound 1 µM): < 31.6 nM
IC50 (second compound 3.16 µM): < 31.6 nM
IC50 (second compound 10 µM): < 31.6 nM
SMILES: COc1cccc2c1C(=O)c1c(O)c3c(c(O)c1C2=O)CC(O)(C(=O)CO)CC3OC1CC(N)C(O)C(C)O1 (stereo not given) + Cc1ccccc1N=Nc1ccc(NC(=O)c2ccnn2C)c(C)c1
viability, T/C [1]: 24.3%
viability, T/C [2]: 17%
viability, T/C [3]: 5.13%
viability, T/C [4]: 0.17%
viability, T/C [5]: 0.69%
viability, T/C [6]: 1.91%
viability, T/C [7]: 20.1%
viability, T/C [8]: 15.5%
viability, T/C [9]: 4.33%
viability, T/C [10]: 0.12%
viability, T/C [11]: 0.59%
viability, T/C [12]: 2.35%
viability, T/C [13]: 23.3%
viability, T/C [14]: 16.1%
viability, T/C [15]: 2.12%
viability, T/C [16]: 3.61%
viability, T/C [17]: 0.65%
viability, T/C [18]: 5.48%
viability, T/C [19]: 19%
viability, T/C [20]: 13.9%
viability, T/C [21]: 1.59%
viability, T/C [22]: 5.2%
viability, T/C [23]: 0.73%
viability, T/C [24]: 1.88%
viability, T/C [25]: 17.2%
viability, T/C [26]: 12.1%
viability, T/C [27]: 0.42%
viability, T/C [28]: 0.36%
viability, T/C [29]: 1.18%
viability, T/C [30]: 4.37%
